Where two headings read alike, the source gives them in different places. Marks after values point to notes of the source that are not given here.
Legend:
A549.EpoB40 = assay type: cell-based; conditions: vs A549; below 1 = sensitive
Text: (§1) Cells lines with previously known mechanisms of resistance. […] Res. 8: 207-218,1996); KB-3-1 (parental derived from an epidermoid carcinoma), KB-8.5, KB-V1 (Akiyama S-I, Fojo A, Hanover J A, Pastan I, Gottesman M M. Isolation and genetic characterization of human KB cell lines resistant to multiple drugs. Somatic Cell Mol. Gen., 11: 117-126,1985; Shen D-W, Cardarelli C, Hwang J, Cornwell M, Richert N, Ishii S, Pastan I, Gottesman MM. […] J. Biol. Chem., 261: 7762-7770, 1986); and HL-60 (parental derived from human leukemia) and HL60/AR (McGrath T., Center M. S. Adriamycin resistance in HL60 cells in the absence of detectable P-glycoprotein. Biochem. Res. Commun., 145:1171-1176,1987); A549 and A549.EpoB40 (He L., Yang C.-P.H., Horwitz S. B. Mutations in p-tubulin map to domains involved in regulation of microtubule stability in epothilone-resistant cell lines. Molecular Cancer Therapeutics. 1: 3-10, 2001). HCT-15 human colon carcinoma and DLD-1 human colon carcinoma are obtained from American Tissue Culture Collection. The MX-1W carcinoma is a Wyeth variant orginally obtained as MX-1 breast carcinoma from the National Cancer Institute. Cell lines selected for resistance to Representative Example 129. KB-3-1 cells are selected for resistance to Example 129 by chronically exposing cells to increasing concentrations of Example 129.
2.2. Cell Survival Assay: Standard Pharmacological Test Procedure. The concentration of candidate inhibitor required to inhibit 50% of cell growth (IC50) is done according to previously reported methods. […] Compounds are serially diluted into media as 2× stocks and 100 μl added to cells in duplicate. Compounds are incubated with cells for 3 days. At the end of the incubation period the sulforhodamine B (SRB) assay, which measures protein content as an assessment of cell survival, is performed as described previously (Skehan P, Storeng R, Scudiero D, Monks A, McMahon J, Vistica D, Warren J T, Bokesch H, Kenney S, Boyd MR. New calorimetric cytotoxicity assay for anticancer-drug screening. J Natl Cancer Inst 1990 Jul 4;82(13):1107-12) with some modification as follows. For KB-3-1 cells with 20% FCS, media is gently decanted and replaced with 200 μl of serum-free media mixed with cold 50% TCA for a final concentration of 10% TCA. The plates are incubated for 1 hr at 4° C., followed by washing 5 times in cold distilled water, then air dried overnight. The fixed cells are stained for 10 min with 80 μl of 0.04% SRB solution prepared in 1% glacial acetic acid. Stain is discarded and plates washed 5 times in 1% glacial acetic acid, then air-dried until completely dry. […] Absorbance is read on a Victor V multi-label plate reader (Perkin Elmer, Gaithersburg, Md.).

KB-3-1 = experiment: Cell survival assay (SRB), KB-3-1; assay type: cell-based, human
Method in brief: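 Cells were exposed in duplicate to serially diluted compound for 3 days, then fixed with 10% TCA (final) for 1 hr at 4 °C, stained 10 min with 0.04% SRB in 1% acetic acid, dissolved in 10 mM Trizma Base and read by absorbance. IC50 is the concentration inhibiting 50% of growth.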

KB-HTI-4.0 = experiment: Cell survival assay, KB-3-1 line made resistant to Example 129 (KB-HTI-4.0); assay type: cell-based, human; conditions: for IC50: KB-3-1 line made resistant to Example 129, Table 8, read-out: KB-HTI-4.0 IC50
Text: as §1
(§2) 2.2. Cell Survival Assay: Standard Pharmacological Test Procedure. The concentration of candidate inhibitor required to inhibit 50% of cell growth (IC50) is done according to previously reported methods. […] Compounds are serially diluted into media as 2× stocks and 100 μl added to cells in duplicate. Compounds are incubated with cells for 3 days. At the end of the incubation period the sulforhodamine B (SRB) assay, which measures protein content as an assessment of cell survival, is performed as described previously (Skehan P, Storeng R, Scudiero D, Monks A, McMahon J, Vistica D, Warren J T, Bokesch H, Kenney S, Boyd MR. New calorimetric cytotoxicity assay for anticancer-drug screening. J Natl Cancer Inst 1990 Jul 4;82(13):1107-12) with some modification as follows. For KB-3-1 cells with 20% FCS, media is gently decanted and replaced with 200 μl of serum-free media mixed with cold 50% TCA for a final concentration of 10% TCA. The plates are incubated for 1 hr at 4° C., followed by washing 5 times in cold distilled water, then air dried overnight. The fixed cells are stained for 10 min with 80 μl of 0.04% SRB solution prepared in 1% glacial acetic acid. Stain is discarded and plates washed 5 times in 1% glacial acetic acid, then air-dried until completely dry. Stained cell product is dissolved in 150 μl of 10 mM Trizma Base and placed on a shaker for 20 minutes until fully dissolved. Absorbance is read on a Victor V multi-label plate reader (Perkin Elmer, Gaithersburg, Md.).
Cells are selected for resistance to Example 129 to understand the frequency and mechanistic basis of resistance.

[1] = test system: human carcinoma xenografts; experiment: Growth of tumors in nude mice, several xenograft models and tolerated dose; assay type: in vivo; conditions: DLD-1, MX-1W or HCT-15 tumors; at or near the MTD
Text: (§3) 2.4. Growth of Tumors in Nude Mice.

KB-8.5 tumor = experiment: Growth of tumors in nude mice, KB-8-5 xenograft; assay type: in vivo; conditions: vincristine 1 mg/kg IP, days 1,5,9
Text: as §3

[2] = test system: Human Melanoma Carcinoma Lox
DLD-1 tumor = experiment: Growth of tumors in nude mice, DLD-1 xenograft; assay type: in vivo; conditions: vincristine 1 mg/kg IP, days 1,5,9
Text: as §3

HCT-15 tumor = experiment: Growth of tumors in nude mice, HCT-15 xenograft; assay type: in vivo; conditions: vincristine 1 mg/kg IP, days 1,5,9
Text: as §3

MX-1W tumor = experiment: Growth of tumors in nude mice, MX-1W xenograft; assay type: in vivo
Text: as §3

[3] = test system: Human Epidermoid Carcinoma KB-3-1; experiment: Growth of tumors in nude mice, KB-3-1 xenograft; assay type: in vivo; conditions: KB-3-1; vincristine 1 mg/kg IP, days 1,5,9
Procedure: as §3
In these experiments, xenografts are implanted subcutaneously into the flanks of nude mice. […] Relative tumor mass compared to controls are assessed during the 21-day post-staging period.
Groups of 5 female nu/nu mice are injected with 1.5×10^6 KB-3-1 (A) or Lox cells (B). […] Relative tumor growth is determined during the experiment and % T/C calculated. Statistical analyses are Student's t-test of treated time points vs. vehicle (*, P<0.05; **, P<0.01)

S1 = experiment: Cell survival assay (SRB), S1; assay type: cell-based; conditions: Homo sapiens; S1 parental; Table 5; read-out: S1 IC50, nM (N)
Text: as §1, §2

KB-V1 (MDR1++) = experiment: Cell survival assay (SRB), KB-V1 (MDR1++); conditions: for IC50: Homo sapiens; for RR, relative resistance: IC50 KB-V1 / IC50 KB-3-1
HL60/AR (MRP1) = experiment: Cell survival assay, HL60/AR (MRP1); conditions: for IC50: Homo sapiens, HL-60/AR, read-out: HL60/AR (MRP1) IC50, nM (N); for RR, relative resistance: IC50 HL60/AR / IC50 HL60
Text: as §1, §2
(§4) J. Cell Science,113: 2011-2021, 2000). It was unknown whether the hemiasterlin family of peptides interact with these drug pumps.

HL60 = experiment: Cell survival assay (MTS), HL60; assay type: cell-based; conditions: Homo sapiens, HL-60; HL60 parental; Table 5; read-out: HL60 IC50, nM (N)
S1-M1-3.2 (MXR) = experiment: Cell survival assay, S1-M1-3.2 (MXR); assay type: cell-based, human; conditions: for IC50: Homo sapiens, S1-M1-3.2, MXR over-expression, Table 5, read-out: S1-M1-3.2 (MXR) IC50, nM (N); for RR, relative resistance: IC50 S1-M1-3.2 / IC50 S1
Text: as §1, §2, §4

KB-8-5 (MDR1+) = experiment: Cell survival assay (SRB), KB-8-5 (MDR1+); conditions: for IC50: Homo sapiens; for RR, relative resistance: IC50 KB-8-5 / IC50 KB-3-1; for resistance of KB-8-5 cells: KB-8-5 (KB-85) vs KB-3-1, in vitro
tumor cell lines = experiment: cells; assay type: cell-based; conditions: HL60/AR (MRP1) or S1-M1-3.2 (MXR)
Text: as §1, §2

KB-PTX-15+099 = experiment: Cell survival assay, KB-PTX-15+099 (paclitaxel-resistant, non-MDR); assay type: cell-based, human
[4] = Lox, vincristine 1 mg/kg IP, days 1,5,9
[5] = MX-1W, vincristine 1 mg/kg IP, days 1,5,9
[6] = read-out: KB-V1 (MDR1++) IC50, nM (N)
[7] = Homo sapiens, KB-3-1 parental, Table 3, read-out: KB-3-1 IC50, nM (N)
[8] = Homo sapiens, KB-3-1 parental, Table 8, read-out: KB-3-1 IC50
[9] = MDR1, read-out: KB-8-5 (MDR1+) IC50, nM (N)

Compound	resistance of A549.EpoB40 cells (A549.EpoB40) [fold]	(RR) relative resistance vs. parental cells (KB-HTI-4.0; KB-HTI-4.0 vs KB-3-1)	IC50 (S1) [nM]	IC50 (KB-V1 (MDR1++); [6]) [nM]	RR, relative resistance (KB-V1 (MDR1++); Table 3)	IC50 (HL60/AR (MRP1)) [nM]	RR, relative resistance (HL60/AR (MRP1))	IC50 (KB-3-1; [7]) [nM]	IC50 (KB-3-1; [8]) [nM]	IC50 (KB-HTI-4.0; Homo sapiens) [nM]	IC50 (HL60) [nM]	IC50 (S1-M1-3.2 (MXR)) [nM]	RR, relative resistance (S1-M1-3.2 (MXR))	IC50 (KB-8-5 (MDR1+); [9]) [nM]	RR, relative resistance (KB-8-5 (MDR1+); Table 3)	resistance of KB-8-5 cells (KB-8-5 (MDR1+)) [fold]	also measured
epothilone B	107	(4)															IC50 (KB-3-1; KB-3-1 parental, Table 8, read-out: KB-3-1 IC50): 0.63 ± 0.08 nM; IC50 (KB-HTI-4.0): 2.37 ± 2.2 nM
CC[C@]1(O)C[C@H]2CN(CCc3c([nH]c4ccccc34)[C@@](C(=O)OC)(c3cc4c(cc3OC)N(C=O)[C@H]3[C@@](O)(C(=O)OC)[C@H](OC(C)=O)[C@]5(CC)C=CCN6CC[C@]43[C@@H]65)C2)C1 [vincristine]																	response of tumors [1]: no response; % T/C on day 6 (KB-8.5 tumor): 71%; % T/C on day 14 (KB-8.5 tumor): 85%; % T/C on day 21 (KB-8.5 tumor): 81%; % T/C on day 7 [2, 4]: 13** %; % T/C on day 12 [2, 4]: 3** %; % T/C on day 7 (DLD-1 tumor): 113%; % T/C on day 14 (DLD-1 tumor): 119%; % T/C on day 21 (DLD-1 tumor): 177%; % T/C on day 9 (HCT-15 tumor): 91%; % T/C on day 13 (HCT-15 tumor): 81%; % T/C on day 17 (HCT-15 tumor): 95%; % T/C on day 21 (HCT-15 tumor): 107%; % T/C on day 7 (MX-1W tumor; [5]): 65%; % T/C on day 14 (MX-1W tumor; [5]): 61%; % T/C on day 7 [3]: 15** %; % T/C on day 14 [3]: 12** %; % T/C on day 21 [3]: 17** %
COc1cccc2c1C(=O)c1c(O)c3c(c(O)c1C2=O)C[C@@](O)(C(=O)CO)C[C@@H]3O[C@H]1C[C@H](N)[C@H](O)[C@H](C)O1 [adriamycin]		(16)	221 ± 113	11500 ± 9670	265	> 3000	>124	43.3 ± 32	33.9 ± 21.2	552 ± 111	24.2 ± 6.8	11500 ± 367	52	658 ± 483	15	15	
O=C1c2c(O)ccc(O)c2C(=O)c2c(NCCNCCO)ccc(NCCNCCO)c21 [mitoxantrone]		(43)	31	> 3000	>291	190	32.4	10.3 ± 6.9	10 ± 6.5	430 ± 159	5.9	16600	535	19.1	1.9		
CC[C@]1(O)C[C@@H]2CN(CCc3c([nH]c4ccccc34)[C@@](C(=O)OC)(c3cc4c(cc3OC)N(C)[C@H]3[C@@](O)(C(=O)OC)[C@H](OC(C)=O)[C@]5(CC)C=CCN6CC[C@]43[C@@H]65)C2)C1 [vinblastine]	0.2		6.5		1848	2	3.7			6.19 ± 1.26	0.5	12.7	1.9		37	37	resistance detected in cells over-expressing MRP1 or MXR (tumor cell lines): no resistance; IC50 (KB-PTX-15+099; Homo sapiens, KB-PTX-15+099, Table 6, read-out: KB-PTX-15+099 IC50): 0.192 ± 0.022 nM; Average Relative Resistance (RR) (KB-PTX-15+099; IC50 KB-PTX-15+099 / IC50 KB-3-1, less than 1 = increased sensitivity): (0.27); increased sensitivity of KB-PTX-15+099 cells (KB-PTX-15+099; vs KB-3-1): 3.7 fold; IC50 (KB-V1 (MDR1++); read-out: KB-V1 (MDR1++) IC50, nM (N), KB-V1, high MDR1 expression, Table 3): 1460 ± 1020 nM; Activity in nude mice animal model (% T/C @ MTD on days 11-15) LOX ([2]; staged LOX xenograft, at MTD ('<': MTD not achieved), days 11-15): 9%; IC50 (KB-3-1; Homo sapiens, KB 3-1, 72 h, amount of drug needed to kill 50% of cells after three days continuous exposure, Table 11, read-out: IC50 in parental cell line KB-3-1): 0.8 nM; IC50 (KB-3-1; Homo sapiens, KB 3-1, KB-3-1, Table 6, read-out: KB-3-1 IC50): 0.703 ± 0.097 nM; IC50 (KB-3-1; Homo sapiens, KB 3-1, KB-3-1 parental, Table 3, read-out: KB-3-1 IC50, nM (N)): 0.79 ± 0.5 nM; IC50 (KB-3-1; Homo sapiens, KB 3-1, KB-3-1 parental, Table 8, read-out: KB-3-1 IC50): 0.73 ± 0.03 nM; (RR) relative resistance vs. parental cells (KB-HTI-4.0): (9); resistance of KB-3-1-derived cell lines selected with Example 129 (KB-HTI-4.0; vs KB-3-1): 9 fold; IC50 (KB-8-5 (MDR1+); MDR1, read-out: KB-8-5 (MDR1+) IC50, nM (N), KB-8-5, moderate MDR1 expression, Table 3): 29.2 ± 22 nM; Activity in nude mice animal model (% T/C @ MTD on days 11-15) MX-1W (MX-1W tumor; staged MX-1W xenograft, at MTD, days 11-15): 64%

From patent US20040121965A1, “Method of treating resistant tumors” (Wyeth Holdings Corporation, priority 2002, published 2004)
